Measured values from patent US20190017060A1, “MANIPULATION OF PROANTHOCYANIDIN (PA) COMPOSITION BY AFFECTING ANTHOCYANIDIN SYNTHASE (ANS) AND LEUCOANTHOCYANIDIN DIOXYGENASE (LDOX)” (University of North Texas, priority 2017, published 2019).

How the values were obtained:
Format in all cases: biochemical, Medicago truncatula
ANS = test: Enzyme assay with recombinant ANS protein, HPLC detection of cyanidin; conditions: 50 μg recombinant protein, 1 h at 30° C., HPLC at 530 nm; flavan-3-ols at 200 μM
Protocol: (§1) The full length ANS and LDOX cDNAs were cloned into pMal-c5x vector (New England Biolabs) at the SalI and BamHI site and BamHI and EcoRI site, respectively. The expression constructs were transformed into E. coli strain NEB® Express Competent E. coli (New England Biolabs). Transformed bacteria were grown in LB medium supplemented with 0.2% glucose to OD 600 of 0.5, and IPTG was added at 0.3 mM to induce protein expression. Bacteria were harvested after 4 h induction. ANS and LDOX proteins were purified with amylose resin (NEB, E8021) following the manufacturer's protocol. Briefly, bacteria were lysed by sonication at 4° C. in extraction buffer (20 mM Tris pH 7.0, 200 mM NaCl, 1 mM DTT). The bacterial lysates were centrifuged at 12,000 g for 15 min at 4° C. The supernatants were loaded on amylose resin which was washed with wash buffer (extraction buffer). Finally, proteins were eluted by elution buffer (20 mM Tris pH 7.0, 200 mM NaCl, 1 mM DTT, 10 mM maltose). Purified proteins were concentrated with an Amicon® Ultra-4 Centrifugal Filter (Millipore) and aliquoted to store at −80° C.
(§2) It was previously reported that ANS can convert leucocyanidin to cyanidin. To confirm this, separate enzyme reactions were set up for ANS and LDOX by incubating with leucocyanidin according to Tanner et al. The enzyme reaction was prepared in 100 μL volume including 20 mM potassium phosphate buffer (pH 7.0), 1 mM 2-oxoglutarate, 0.4 mM ammonium iron(II) sulfate, 4 mM sodium ascorbate, 100 mM NaCl, 10 mM maltose, 5 mM DTT and 50 μg recombinant proteins. The reactions were carried out for 1 h at 30° C. and terminated by addition of 1 μL 36% HCl and 10 μL 100% methanol. The reaction mixture was centrifuged for 5 min at 13,000 rpm at 4° C. and analyzed by HPLC. All reverse-phase HPLC analyses were performed on an Agilent HP1100 HPLC using the following gradient: solvent A (1% phosphoric acid) and B (acetonitrile) at 1 ml/min flow rate: 0-5 min, 5% B; 5-10 min, 5-10% B; 10-25 min, 10-17% B; 25-30 min, 17-23% B; 30-65 min, 23-50% B; 65-79 min, 50-100% B; 79-80 min, 100-5% B. Data were collected at 280 and 530 nm for flavonoids and anthocyanidins, respectively. Identifications were based on chromatographic behavior and UV spectra compared with those of authentic standards.
(§3) Since catechin was highly accumulated in the ldox mutant, it was tested whether ANS or LDOX protein can react with (+)-catechin (2R, 3S), which is stated as a naturally synthesized monomeric unit of PAs. The same enzyme reaction was set up but using 200 μM of (+)-catechin as substrate instead of leucocyanidin. Reactions without 2-oxoglutarate (-oxo) were run as negative controls. […] The enzyme reaction was performed with (+)-catechin as substrate and recombinant ANS or LDOX protein. Arrowhead indicates the peak for cyanidin (Cy) standard. Reactions without 2-oxoglutarate were run as negative controls and are denoted as -oxo. […] The enzyme assay was performed with (−)-catechin, (−)-epicatechin or (+)-epicatechin as substrate and purified recombinant ANS or LDOX protein. The substrate in each reaction is indicated. (−)-cat, (−)-catechin; (−)-epi, (−)-epicatechin; (+)-epi, (+)-epicatechin. […] The gray arrow denotes the catalyzed reaction in vitro. The proteins used are indicated in each chromatogram.

LDOX = test: Enzyme assay with recombinant LDOX protein, HPLC detection of cyanidin; conditions: 50 μg recombinant protein, 1 h at 30° C., HPLC at 530 nm; flavan-3-ols at 200 μM
Protocol: as §1, §2, §3

ANS and ANR proteins = test: Combined enzyme reaction of ANS with ANR; conditions: 200 μM substrate, 10 mM NADPH, 50 μg ANS and ANR proteins, HPLC at 280 nm
Protocol: as §2
(§4) Next, the combined reaction of ANS or LDOX with ANR was tested to check if (+)-catechin can be converted to (−)-epicatechin, which is the almost exclusive monomer unit of PA polymers in Medicago truncatula. […]

LDOX and ANR proteins = test: Combined enzyme reaction of LDOX with ANR; conditions: 200 μM substrate, 10 mM NADPH, 50 μg LDOX and ANR proteins, HPLC at 280 nm
Protocol: as §2, §4

| Compound | in vitro conversion of substrate to cyanidin by ANS (ANS) | in vitro conversion of substrate to cyanidin by LDOX (LDOX) | (+)-catechin converted to epicatechin (ANS and ANR proteins) | (+)-catechin converted to epicatechin (LDOX and ANR proteins) |
| --- | --- | --- | --- | --- |
| Oc1cc(O)c2c(c1)OC(c1ccc(O)c(O)c1)C(O)C2O (stereo not drawn) [leucocyanidin] | catalyzed in vitro conversion of leucocyanidin to cyanidin | catalyzed in vitro conversion of leucocyanidin to cyanidin | – | – |
| (−)-catechin | No cyanidin generation was detected | No cyanidin generation was detected | – | – |
| Oc1cc(O)c2c(c1)O[C@H](c1ccc(O)c(O)c1)[C@H](O)C2 [(−)-epicatechin] | No cyanidin generation was detected | No cyanidin generation was detected | – | – |
| Oc1cc(O)c2c(c1)O[C@@H](c1ccc(O)c(O)c1)[C@@H](O)C2 [(+)-epicatechin] | No cyanidin generation was detected | No cyanidin generation was detected | – | – |
| Oc1cc(O)c2c(c1)O[C@H](c1ccc(O)c(O)c1)[C@@H](O)C2 [(+)-catechin] | catalyze the in vitro conversion of (+)-catechin to cyanidin | catalyze the in vitro conversion of (+)-catechin to cyanidin | more than 70% | more than 70% |
